Source: ChEMBL document CHEMBL6153076, “Discovery of novel JQ1 derivatives as dual ferroptosis and apoptosis inducers for the treatment of triple-negative breast cancer” (Eur J Med Chem, 2025)
pIC50: −log10 of the molar value. Active and inactive are the calls of the source. No cut-off for these calls is given here.

Columns and labels:
[1] = Cytotoxicity against human MCF-10A cells assessed as inhibition of cell proliferation incubated for 72 hrs by MTT assay; type: toxicity, cell-based
[2] = tested on: MDA-MB-231; test: Downregulation of BRD4 expression in human MDA-MB-231 cells by Western blot analysis; type: functional, cell-based; settings: dose 0.2-5 µM
[3] = molecular target: Bromodomain-containing protein 4 (Homo sapiens, UniProt O60885); test: Inhibition of BRD4 (unknown origin) incubated for 120 mins by TR-FRET assay
[4] = tested on: MDA-MB-231; test: Downregulation of GPX4 expression in human MDA-MB-231 cells by Western blot analysis; type: functional, cell-based; settings: dose 0.2-5 µM
[5] = tested on: MDA-MB-231; test: Induction of ferroptosis in human MDA-MB-231 cells assessed as increase in intracellular LPO accumulation incubated for 48 hrs by confocal laser scanning microscopic analysis; type: functional, cell-based; settings: dose 0.2-5 µM
[6] = tested on: MDA-MB-231; test: Induction of ferroptosis in human MDA-MB-231 cells assessed as increase in intracellular MDA accumulation incubated for 48 hrs; type: functional, cell-based; settings: dose 0.2-5 µM
[7] = tested on: MDA-MB-231; test: Induction of ferroptosis in human MDA-MB-231 cells assessed as decrease in GSH level incubated for 48 hrs; type: functional, cell-based; settings: dose 0.2-5 µM
[8] = tested on: MDA-MB-231; test: Induction of ferroptosis in human MDA-MB-231 cells assessed as increase in intracellular Fe2+ level at 0.2 to 5 uM incubated for 48 hrs by FerroOrange staining based flow cytometry analysis; type: functional, cell-based; settings: dose 0.2-5 µM
[9] = tested on: MDA-MB-231; test: Downregulation of SLC3A2 expression in human MDA-MB-231 cells; type: functional, cell-based; settings: dose 0.2-5 µM
[10] = tested on: MDA-MB-231; test: Downregulation of SLC7A11 expression in human MDA-MB-231 cells; type: functional, cell-based; settings: dose 0.2-5 µM
[11] = tested on: MDA-MB-231; test: Downregulation of FSP1 expression in human MDA-MB-231 cells; type: functional, cell-based; settings: dose 0.2-5 µM
[12] = tested on: MDA-MB-231; test: Downregulation of FTH1 expression in human MDA-MB-231 cells; type: functional, cell-based; settings: dose 0.2-5 µM
[13] = tested on: MDA-MB-231; test: Downregulation of NRF2 expression in human MDA-MB-231 cells at 0.2 to 5 uM; type: functional, cell-based; settings: dose 0.2-5 µM
[14] = tested on: MDA-MB-231; test: Downregulation of HO-1 expression in human MDA-MB-231 cells at 0.2 to 5 uM; type: functional, cell-based; settings: dose 0.2-5 µM
[15] = tested on: MDA-MB-231; test: Induction of apoptosis in human MDA-MB-231 cells assessed as viable cells at 0.2 uM incubated for 48 hrs by Annexin V/PI staining based flow cytometry analysis (reference value: 97.85%); type: functional; settings: read-out: Activity
[16] = tested on: MDA-MB-231; test: Induction of apoptosis in human MDA-MB-231 cells assessed as early apoptotic cells at 0.2 uM incubated for 48 hrs by Annexin V/PI staining based flow cytometry analysis (reference value: 0.80%); type: functional
[17] = tested on: MDA-MB-231; test: Induction of apoptosis in human MDA-MB-231 cells assessed as late apoptotic cells at 0.2 uM incubated for 48 hrs by Annexin V/PI staining based flow cytometry analysis (reference value: 0.14%); type: functional
[18] = tested on: MDA-MB-231; test: Induction of apoptosis in human MDA-MB-231 cells assessed as necrotic cells at 0.2 uM incubated for 48 hrs by Annexin V/PI staining based flow cytometry analysis (reference value: 0.03%); type: functional
[19] = tested on: MDA-MB-231; test: Induction of apoptosis in human MDA-MB-231 cells assessed as viable cells at 1 uM incubated for 48 hrs by Annexin V/PI staining based flow cytometry analysis (reference value: 97.85%); type: functional; settings: read-out: Activity
[20] = tested on: MDA-MB-231; test: Induction of apoptosis in human MDA-MB-231 cells assessed as early apoptotic cells at 1 uM incubated for 48 hrs by Annexin V/PI staining based flow cytometry analysis (reference value: 0.80%); type: functional
[21] = tested on: MDA-MB-231; test: Induction of apoptosis in human MDA-MB-231 cells assessed as late apoptotic cells at 1 uM incubated for 48 hrs by Annexin V/PI staining based flow cytometry analysis (reference value: 0.14%); type: functional
[22] = tested on: MDA-MB-231; test: Induction of apoptosis in human MDA-MB-231 cells assessed as necrotic cells at 1 uM incubated for 48 hrs by Annexin V/PI staining based flow cytometry analysis (reference value: 0.03%); type: functional
[23] = tested on: MDA-MB-231; test: Induction of apoptosis in human MDA-MB-231 cells assessed as viable cells at 5 uM incubated for 48 hrs by Annexin V/PI staining based flow cytometry analysis (reference value: 97.85%); type: functional; settings: read-out: Activity
[24] = tested on: MDA-MB-231; test: Induction of apoptosis in human MDA-MB-231 cells assessed as early apoptotic cells at 5 uM incubated for 48 hrs by Annexin V/PI staining based flow cytometry analysis (reference value: 0.80%); type: functional
[25] = tested on: MDA-MB-231; test: Induction of apoptosis in human MDA-MB-231 cells assessed as late apoptotic cells at 5 uM incubated for 48 hrs by Annexin V/PI staining based flow cytometry analysis (reference value: 0.14%); type: functional
[26] = tested on: MDA-MB-231; test: Induction of apoptosis in human MDA-MB-231 cells assessed as necrotic cells at 5 uM incubated for 48 hrs by Annexin V/PI staining based flow cytometry analysis (reference value: 0.03%); type: functional
[27] = tested on: MDA-MB-231; test: Induction of apoptosis in human MDA-MB-231 cells assessed as upregulation of Bax expression at 0.2 to 5 uM; type: functional, cell-based; settings: dose 0.2-5 µM
[28] = tested on: MDA-MB-231; test: Induction of apoptosis in human MDA-MB-231 cells assessed as upregulation of C-myc expression at 0.2 to 5 uM; type: functional, cell-based; settings: dose 0.2-5 µM
[29] = tested on: MDA-MB-231; test: Induction of apoptosis in human MDA-MB-231 cells assessed as […] expression at 0.2 to 5 uM; type: functional, cell-based; settings: dose 0.2-5 µM
[30] = tested on: MDA-MB-231; test: Induction of cell cycle arrest in human MDA-MB-231 cells assessed as accumulation of cells at G0/G1 phase at 0.2 uM incubated for 48 hrs by propidium iodide staining flow cytometric analysis (reference value: 64.56 %); type: functional
[31] = tested on: MDA-MB-231; test: Induction of cell cycle arrest in human MDA-MB-231 cells assessed as accumulation of cells at G2/M phase at 0.2 uM incubated for 48 hrs by propidium iodide staining flow cytometric analysis (reference value: 8.69%); type: functional
[32] = tested on: MDA-MB-231; test: Induction of cell cycle arrest in human MDA-MB-231 cells assessed as accumulation of cells at S phase at 0.2 uM incubated for 48 hrs by propidium iodide staining flow cytometric analysis (reference value: 26.75%); type: functional
[33] = tested on: MDA-MB-231; test: Induction of cell cycle arrest in human MDA-MB-231 cells assessed as accumulation of cells at G0/G1 phase at 1 uM incubated for 48 hrs by propidium iodide staining flow cytometric analysis (reference value: 64.56 %); type: functional
[34] = tested on: MDA-MB-231; test: Induction of cell cycle arrest in human MDA-MB-231 cells assessed as accumulation of cells at G2/M phase at 1 uM incubated for 48 hrs by propidium iodide staining flow cytometric analysis (reference value: 8.69%); type: functional
[35] = tested on: MDA-MB-231; test: Induction of cell cycle arrest in human MDA-MB-231 cells assessed as accumulation of cells at S phase at 1 uM incubated for 48 hrs by propidium iodide staining flow cytometric analysis (reference value: 26.75%); type: functional
[36] = tested on: MDA-MB-231; test: Induction of cell cycle arrest in human MDA-MB-231 cells assessed as accumulation of cells at G0/G1 phase at 5 uM incubated for 48 hrs by propidium iodide staining flow cytometric analysis (reference value: 64.56 %); type: functional
[37] = tested on: MDA-MB-231; test: Induction of cell cycle arrest in human MDA-MB-231 cells assessed as accumulation of cells at G2/M phase at 5 uM incubated for 48 hrs by propidium iodide staining flow cytometric analysis (reference value: 8.69%); type: functional
[38] = tested on: MDA-MB-231; test: Induction of cell cycle arrest in human MDA-MB-231 cells assessed as accumulation of cells at S phase at 5 uM incubated for 48 hrs by propidium iodide staining flow cytometric analysis (reference value: 26.75%); type: functional
[39] = tested on: MDA-MB-231; test: Anti-metastatic activity in human MDA-MB-231 cells assessed as inhibition of cell migration incubated for 24 hrs by inverted microscopic analysis; type: functional, cell-based; settings: dose 0.2-5 µM
[40] = tested on: MDA-MB-231; test: Antitumor activity against human MDA-MB-231 cells xenografted in nude mouse assessed as suppression of tumor growth at 50 mg/kg, ip administered daily for 21 days; type: functional, organism-based; settings: time 21.0 day
[41] = Toxicity in nude mouse xenografted with human MDA-MB-231 cells at 50 mg/kg, ip administered daily for 21 days; type: organism-based; settings: in vivo, 504 h, time 21 day
[42] = tested on: MDA-MB-231; test: Antitumor activity against human MDA-MB-231 cells xenografted in nude mouse assessed as tumor growth inhibition at 50 mg/kg, ip administered daily for 21 days; type: functional; settings: MDA-MB-231, 504 h, time 21 day, read-out: TGI
[43] = tested on: MDA-MB-231; test: cells; settings: Homo sapiens, MDA-MB-231, 72 h
Description: Antiproliferative activity against human MDA-MB-231 cells assessed as inhibition of cell proliferation incubated for 72 hrs by MTT assay

[44] = tested on: BT-549; test: cells; settings: Homo sapiens, BT-549, 72 h
Description: Antiproliferative activity against human BT-549 cells assessed as inhibition of cell proliferation incubated for 72 hrs by MTT assay

## Cc1sc2c(c1C)C(c1ccc(Cl)cc1)=N[C@@H](CC(=O)NC1CCN(C(=O)CCl)CC1)c1nnc(C)n1-2
[1]
  IC50 at 72 h: 2560 nM
[2]
  Activity: Dose-dependent-effect
[3]
  pIC50: 6.48
[4]
  Activity: Dose-dependent-effect
[5]
  Activity: Dose-dependent-effect
[6]
  Activity: Dose-dependent-effect
[7]
  Activity: Dose-dependent-effect
[8]
  Activity: Active
[9]
  Activity: Dose-dependent-effect
[10]
  Activity: Dose-dependent-effect
[11]
  Activity: Dose-dependent-effect
[12]
  Activity: Dose-dependent-effect
[13]
  Activity: Active
[14]
  Activity: Active
[15]
  viability at 0.2 µM: 88%
[16]
  Activity: 6.1%
[17]
  Activity: 5.14%
[18]
  Activity: 0.68%
[19]
  viability at 1 µM: 72.5%
[20]
  Activity: 16.51%
[21]
  Activity: 9.51%
[22]
  Activity: 1.44%
[23]
  viability at 5 µM: 59.7%
[24]
  Activity: 18.2%
[25]
  Activity: 21.27%
[26]
  Activity: 0.7%
[27]
  Activity: Active
[28]
  Activity: Active
[29]
  Activity: Active
[30]
  Activity: 60.87%
[31]
  Activity: 10.25%
[32]
  Activity: 28.88%
[33]
  Activity: 53.71%
[34]
  Activity: 15.47%
[35]
  Activity: 30.62%
[36]
  Activity: 42.44%
[37]
  Activity: 25.39%
[38]
  Activity: 32.17%
[39]
  Activity: Dose-dependent-effect
[40]
  Activity: Active
[41]
  Activity: Non-toxic
[42]
  inhibition in vivo at 50 mg/kg: 51.4%
[43]
  pIC50: 6.31
[44]
  pIC50: 6.28
